{"source": "patent US20130047297A1", "about": "“POLYNUCLEOTIDE MOLECULES FOR GENE REGULATION IN PLANTS” (priority 2010, published 2013)", "molecules": {"B1": {"name": "synthetic Pol III gene: dsDNA, SEQ ID NO:3, U6 snRNA elements with anti-sense and sense DNA of bacterial EPSPS (nucleic acid)", "DNA": "GGCCCATAGGCCTTTTTCTAAAATAGGCCCATTTAAGCTATTAACAATCTTCAAAAGTACCACATCGCTTAGGTAAAGAAAGCAGCTGAGTTTATATATGGTTAGAGACGAAGTAGTGATTGCGACGAGCGACGTCTCGCCCTCATCGCAATCCACGCCATTGAGCTTGAGGCCATTGGCGACGGCCGAGAGGCGGTCGCTTAAGATTAGCATGTCCTTGACGCGGAGTTCTTCCAGACCGTTCATCACGGTCGCCCCTTCCGCGAAGGCGGCGGCGACAGCGAGAATCGGATATTCGTCGATCATCGAAGGCGCGCGGTCTTCCGGCACCGTGACGCATAAACACGGTGCCGGAAGACCGCGCGCCTTCGATGATCGACGAATATCCGATTCTCGCTGTCGCCGCCGCCTTCGCGGAAGGGGCGACCGTGATGAACGGTCTGGAAGAACTCCGCGTCAAGGAAAGCGACCGCCTCTCGGCCGTCGCCAATGGCCTCAAGCTCAATGGCGTGGATTGCGATGAGGGCGAGACGTCGCTCGTCGTTTTTTTTGGCAAAAA"}, "B2": {"name": "201 nucleotide dsRNA polynucleotide: dsRNA to SEQ ID NO:60, positions 1724-1923 of tomato PDS mRNA (nucleic acid)", "sense": "TCGCAGCGACTCAGAAATTATTGATGCAACGATGAAGGAACTAGCAACGCTTTTTCCTGATGAAATTTCAGCAGATCAAAGCAAAGCAAAAATATTGAAGTACCATGTTGTCAAAACTCCGAGGTCTGTTTATAAAACTGTGCCAGGTTGTGAACCCTGTCGGCCTTTACAAAGATCCCCAATAGAGGGGTTTTATTTAG", "modifications": "complementary strand"}}, "format_in_all_cases": "in vivo", "key": {"[1]": {"test_system": "phytoene desaturase (PDS) gene in lettuce (Lactuca sativa)", "assay": "Topical PDS ssDNA on lettuce, bleaching (Example 24)", "settings": "8 nanomoles polynucleotide per plant (mixture: 2 nanomoles each); observed at 4", "procedure": "Lettuce variety LS49 “Green Tower” was used in the assays. Two fully expanded leaves of each plant were dipped into a freshly made 0.1% Silwet L-77 in double-distilled water solution for a few seconds. The leaves were allowed to dry for 15-30 minutes. Each plant was then treated by applying 20 microliters ssDNA solution to the top surface of two Silwet-treated leaves (total 40 microliters per plant). Table 9 lists the assay conditions used and the observed bleaching of plants topically treated with ssDNA polynucleotides.\nThe assays were repeated with 2 or 4 nanomoles ssDNA applied per plant.\nThe assays were repeated using each individual anti-sense ssDNAs (“HL287”, SEQ ID NO:55; “HL288”, SEQ ID NO:56; “HL289”, SEQ ID NO:57; and “HL290”, SEQ ID NO:58) with 8 nanomoles polynucleotide applied per plant; positive control plants were treated with a mixture of the four individual anti-sense ssDNAs at 2 nanomoles each (for a total of 8 nanomoles polynucleotide applied per plant) and negative control plants were treated only with buffer."}, "[2]": {"test_system": "Nicotiana benthamiana phytoene desaturase", "assay": "Topical oligonucleotides/polynucleotides on tobacco, PDS bleaching and chlorophyll (Example 10)", "procedure": "The following procedure was used for all assays described in this example. Four-week old Nicotiana benthamiana plants were used in all assays. Plants were treated with 0.1% Silwet L-77 solution freshly made with ddH2O. Two fully expanded leaves per plant (one cotyledon, one true leaf) were dipped into the Silwet L-77 solution for a few seconds, and allowed to dry for 15-30 minutes before application of the polynucleotide composition. Final concentration for each oligonucleotide or polynucleotide was 25 microM (in 0.01% Silwet L-77, 5 mM sodium phosphate buffer, pH 6.8) unless otherwise stated. 20 microliters of the solution was applied to the top surface of each of the two pre-treated leaves to provide a total of 40 microliters (1 nmol oligonucleotide or polynucleotide) for each plant. Leaf bleaching was observed 3 days post treatment.\nFIG. 13 illustrates phenotypes observed at day 12 after treatment in another assay of the effect from twelve combinations of polynucleotides or oligonucleotides (see Table 4). Table 4 also lists observations of visible bleaching of the plants at day 5 after treatment and the results of chlorophyll measurements taken at days 7 and 12 after treatment. Chlorophyll measurements are an indication of suppression of the target gene phytoene desaturase, and measurements were taken at 6 spots on the apical area, focussing on visibly bleached leaves or (in plants without visible bleaching) on leaves in equivalent locations on the plants; lower chlorophyll measurement values indicate suppression of phytoene desaturase."}, "[3]": {"test_system": "endogenous PDS, EPSPS, or RuBisCO genes from Nicotiana benthamiana", "assay": "PDS, EPSPS, RuBisCO anti-sense polynucleotides on Nicotiana benthamiana, plant height (Example 33)", "settings": "PDS 25 nanomoles, EPSPS and RuBisCO 50 nanomoles of each per plant", "procedure": "Nicotiana benthamiana plants were treated using a procedure similar to that described in Example 12. Polynucleotide solution (or mixed polynucleotides in the case of EPSPS and RuBisCO) were prepared in 0.01% (v/v) Silwet L-77 and 2% (w/v) ammonium sulfate in 5 millimolar sodium phosphate, pH 6.8. Two fully expanded leaves per plant were dipped into 0.1% Silwet L-77 solution freshly made with ddH2O for a few seconds, and allowed to dry. About 30 minutes later, 20 microliters of polynucleotide solution, was applied to each of the two pre-treated leaves. For PDS, each of 5 plants received 25 nanomoles of the PDS anti-sense polynucleotide (SEQ ID NO:34); for EPSPS, each of 5 plants received 50 nanomoles of each EPSPS anti-sense polynucleotide (SEQ ID NOS:279-284); and for RuBisCO, each of 5 plants received 50 nanomoles of each RuBisCO anti-sense polynucleotide (SEQ ID NOS:288-295). Paired control plants were treated with buffer (0.01% (v/v) Silwet L-77 and 2% (w/v) ammonium sulfate in 5 millimolar sodium phosphate, pH 6.8)."}, "[4]": {"test_system": "endogenous Nicotiana benthamiana Argonaute-1 (AGO1) gene", "assay": "AGO1 anti-sense with PDS anti-sense, systemic bleaching (Example 33)", "settings": "PDS 25 nanomoles; AGO1 50 nanomoles of each of 14; combined applied on separate leaves", "procedure": "Nicotiana benthamiana plants were treated using a procedure similar to that described in Example 12. Polynucleotide solution (or mixed polynucleotides in the case of AGO1) were prepared in 0.01% (v/v) Silwet L-77 and 2% (w/v) ammonium sulfate in 5 millimolar sodium phosphate, pH 6.8. Two fully expanded leaves per plant were dipped into 0.1% Silwet L-77 solution freshly made with ddH2O for a few seconds, and allowed to dry. About 30 minutes later, 20 microliters of polynucleotide solution was applied to each of the two pre-treated leaves. For PDS, each of 5 plants received 25 nanomoles of the PDS anti-sense polynucleotide (SEQ ID NO:34); for AGO1, each of 5 plants received 50 nanomoles of each of the 14 AGO1 anti-sense polynucleotides (SEQ ID NOS:300-313); for PDS and AGO combined treatments, each of 5 plants received 25 nanomoles of the PDS anti-sense polynucleotide (SEQ ID NO:34) and 50 nanomoles of each of the 14 AGO1 anti-sense polynucleotides (SEQ ID NOS:300-313) applied on separate leaves. Paired control plants were treated with buffer (0.01% (v/v) Silwet L-77 and 2% (w/v) ammonium sulfate in 5 millimolar sodium phosphate, pH 6.8). No difference was observed between plants treated with the AGO1 anti-sense polynucleotides and the plants treated with buffer alone."}, "[5]": {"test_system": "Glyphosate-resistant Palmer amaranth plants having 49 or 63 copies EPSPS", "assay": "Salicylic acid pretreatment with dsRNA and glyphosate (Example 15)", "settings": "15 millimolar SA 1, 5, or 24 hours before dsRNA; glyphosate 72 hours later; 7 days after glyphosate", "procedure": "Salicylic acid (SA) induces virus resistance in tobacco; see, e. g., Chivasa et al. (1997) Plant Cell, 19:547-557. Glyphosate-resistant Palmer amaranth plants having 49 or 63 copies EPSPS were pretreated with 15 millimolar SA. A solution of the four oligonucleotide-size “short” EPSPS dsRNA molecules (described in Example 1) was applied by hand at 1, 5, or 24 hours after treatment with SA, followed 72 hours later by spraying with glyphosate (1682 g acid equivalent per hectare of Roundup® WeatherMAX® brand herbicide)."}, "[6]": {"test_system": "volunteer glyphosate-resistant corn plants", "assay": "Synthetic Pol III gene dsDNA on volunteer corn (Example 8)", "settings": "0.1 wt % Silwet L-77 and dsDNA sprayed, glyphosate 7 days later; 15 days later", "from_the_text": "(§1) This example illustrates the utility of employing a synthetic Pol III gene in compositions and methods of this invention. With reference to SEQ ID NO:3 and FIG. 2, a synthetic Pol III gene is created using elements from an Arabidopsis thaliana U6 snRNA gene to provide a dsDNA molecule with two copies of RGCCCR elements (bold and underlined), an upstream sequence element (USE) having the sequence “[…]” (SEQ ID NO:4, bold and underlined), a TATA box (bold and underlined), a “G” nucleotide (bold and underlined), anti-sense DNA (italics) corresponding to a bacterial DNA encoding an EPSPS protein (see U.S. Pat. No. RE39,247) that imparts resistance to glyphosate herbicide when expressed in transgenic corn plants, an “[…]” element (SEQ ID NO:5, bold and underlined) embedded in the anti-sense DNA, an “[…]” element (SEQ ID NO:6, bold and underlined) followed by sense DNA (lower case) and a “TTTTTT” terminator element (SEQ ID NO:7, bold and underlined). A solution of 0.1 wt % Silwet L-77 brand organosilicone surfactant and a solution of multiple copies of the dsDNA molecule are sprayed onto leaves of volunteer glyphosate-resistant corn plants growing in a field of glyphosate-resistant soybean plants, followed 7 days later by treatment with Roundup WeatherMAX® brand glyphosate herbicide. […]"}, "[7]": {"test_system": "glyphosate-resistant soybean plants", "assay": "Synthetic Pol III gene dsDNA, soybean crop (Example 8)", "settings": "0.1 wt % Silwet L-77 and dsDNA sprayed, glyphosate 7 days later; 15 days later", "from_the_text": "as §1"}, "[8]": {"test_system": "phytoene desaturase (PDS) gene in tomato (Solanum lycopersicum)", "assay": "Topical PDS dsRNA on tomato (Example 25)", "settings": "2.5 micromolar dsRNA, 40 microliters per plant", "from_the_text": "A 201 nucleotide dsRNA polynucleotide with an anti-sense strand capable of hybridizing to the RNA encoded by the sequence […] […] […] AG (SEQ ID NO:60) which correspond to the nucleotides at positions 1724-1923 of the mRNA transcribed from the tomato PDS gene sequence (SEQ ID NO:59) was synthesized by RT PCR using oligonucleotide primers with the sequences […] (SEQ ID NO:61, sense primer) and […] (SEQ ID NO:62, anti-sense primer). A 2.5 micromolar dsRNA solution was made with the 201 nucleotide dsRNA polynucleotide (SEQ ID NO:60) in 0.01% Silwet L-77 in 5 millimolar sodium phosphate buffer, pH 6.8.\nThree-week old tomato seedlings were treated as follows. Two fully expanded leaves were dipped into a freshly made 0.1% Silwet L-77 solution in double-distilled water for a few seconds. The leaves were allowed to dry for 30 minutes to 1 hour. Each plant was then treated by applying 20 microliters dsRNA solution to the top surface of two Silwet-treated leaves (total 40 microliters per plant). Control plants were treated with buffer. The plants were kept in a growth chamber for observation. FIG. 30 depicts the systemic silencing of the target gene PDS as evidenced by bleaching of the dsRNA-treated plants 30 days after topical treatment."}}, "data": [{"molecule": "HL290: SEQ ID NO:58, anti-sense ssDNA, lettuce PDS (antisense CAAATAAATTTTGTACATTTGGGTAAGCTCCAA; DNA, backbone not given here)", "values": [{"measurement": "systemic silencing (FIG. 29B)", "setting": "[1]", "result": "systemic silencing evidenced by bleaching"}]}, {"molecule": "HL288: SEQ ID NO:56, anti-sense ssDNA, lettuce PDS (antisense CCATTCAATGGTGCAGGTAAAAC; DNA, backbone not given here)", "values": [{"measurement": "systemic silencing (FIG. 29B)", "setting": "[1]", "result": "systemic silencing evidenced by bleaching"}]}, {"molecule": "PDS 21-mer anti-sense ssDNA: SEQ ID NO:34 (antisense CATCTCCTTTAATTGTACTGC; DNA, backbone not given here)", "values": [{"measurement": "bleaching of apical leaves (FIG. 15)", "setting": "[2]; another assay", "result": "strong bleaching"}, {"measurement": "bleaching of apical leaves (FIG. 14)", "setting": "[2]; topical treatment", "result": "Strong bleaching"}, {"measurement": "plant height (FIG. 36)", "setting": "[3]; 12 days (PDS and EPSPS) or 10 days (RuBisCO) after treatment", "result": "severe stunting"}, {"measurement": "other phenotype", "setting": "[3]", "result": "bleaching"}, {"measurement": "systemic bleaching / difference from buffer", "setting": "[4]", "result": "displayed systemic bleaching"}]}, {"molecule": "HL289: SEQ ID NO:57, anti-sense ssDNA, lettuce PDS (antisense CATAGAATGCTCCTTCCACTG; DNA, backbone not given here)", "values": [{"measurement": "systemic silencing (FIG. 29B)", "setting": "[1]", "result": "systemic silencing evidenced by bleaching"}]}, {"molecule": "O=C(O)c1ccccc1O", "note": "[SA, Salicylic acid]", "values": [{"measurement": "improvement of the effects of the dsRNAs and glyphosate activity (plant height)", "setting": "[5]", "result": "No improvement"}]}, {"molecule": "B1", "values": [{"measurement": "corn plant outcome", "setting": "[6]", "result": "dead"}, {"measurement": "soybean plant outcome", "setting": "[7]", "result": "thriving"}]}, {"molecule": "B2", "values": [{"measurement": "plant growth compared to control plants", "setting": "[8]", "result": "severely stunted"}, {"measurement": "systemic silencing of PDS (FIG. 30)", "setting": "[8]; 30 days after topical treatment", "result": "bleaching"}]}]}
